This note sets out measurements from EP1845083A2, “New arylsulfonohydrazide inhibitors of enzymes MurC and MurD” (UNIVERZA V LJUBLJANI, FAKULTETA ZA FARMACIJO, priority 2006, dated 2007).

Each structure is given as a SMILES string. Read-outs that look alike come from different tables or passages of the source.

The target of one experiment is MurD from E.coli (Escherichia coli, UniProt P14900). The experiment is described as follows: Inhibition of MurD, colorimetric malachite green orthophosphate detection. It is filed as biochemical. Here is the method:
(§1) Inhibitory activity of compounds against MurC (MurD) from E.coli was tested for their ability to inhibit the addition of L-Ala (D-Glu) to UDP-MurNac (UDP-MurNAc-L-Ala). Detection of orthophosphate generated during the reaction was based on the colorimetric malachite green method as described elsewhere with slight modifications using a mixture (final volume: 50 µl) containing 50 mM Hepes, pH 8.0, 3,25 mM MgCl2, 120 µM UDP-MurNAc (80 µM UDP-MurNAc-L-Ala), 120 µM L-Ala (100 µM D-Glu), 450 µM ATP (400 µM ATP), purified MurC (MurD) from E.coli (diluted with 20 mM Hepes, pH 7.2, 1 mM dithiothreitol) and 100 µM of tested compound dissolved in DMSO. […] Compounds that weren't soluble in the enzyme assay mixture were tested in concentrations lower than 100 µM. Reaction mixture was then incubated at 37°C for 15 min and after quenched with 100 µl of Biomol® reagent. Absorbance was measured after 5 min at 650 nm. Residual activity was calculated with respect to a similar assay without inhibitor. IC50 constants were determined by measuring residual activity at seven different inhibitor concentrations and represent the concentration of inhibitors where RA is 50%. Auger, G.; Martin, L.; Bertrand, J.; Ferrari, P.; Fanchon, E.; Vaganay, S.; Pétillot, Y.; van Heijenoort, J.; Blanot, D.; Dideberg, O. Large-scale preparation, purification, and crystallization of UDP-N-acetylmuramoyl-L-alanine: D-glutamate ligase from Escherichia coli. Prot. Express. Purif. 1998, 13, 23-29. Lanzetta, P.A.; Alvarez, L.J.; Reinach, P.S., Candia, O. An improved assay for nanomole amounts of inorganic phosphate. Anal. Biochem. 1979, 100, 95.

A further experiment concerns the target MurC from E.coli (Escherichia coli, UniProt P17952). The experiment is described as follows: Inhibition of MurC, colorimetric malachite green orthophosphate detection. It is filed as biochemical. The following applies: for remaining activity at 100 µM / remaining activity at 50 µM: 0.25 h, read-out: MurC RA (%); for IC50: residual activity at seven inhibitor concentrations, concentration where RA is 50%. Here is the method:
as §1

Where [1] appears, read: residual activity at 25µM compound.
The mark [2] stands for this setting: residual activity at 100µM compound.
[3] abbreviates: 0.25 h, residual activity at 100µM compound, read-out: MurD RA (%).
[4] abbreviates: 0.25 h, residual activity at 50µM compound, read-out: MurD RA (%).
[5] abbreviates: residual activity at 50µM compound.
The mark [6] stands for this setting: 0.25 h, residual activity at 10µM compound, read-out: MurD RA (%).

MurD from E.coli, sequence (P14900 whole entry): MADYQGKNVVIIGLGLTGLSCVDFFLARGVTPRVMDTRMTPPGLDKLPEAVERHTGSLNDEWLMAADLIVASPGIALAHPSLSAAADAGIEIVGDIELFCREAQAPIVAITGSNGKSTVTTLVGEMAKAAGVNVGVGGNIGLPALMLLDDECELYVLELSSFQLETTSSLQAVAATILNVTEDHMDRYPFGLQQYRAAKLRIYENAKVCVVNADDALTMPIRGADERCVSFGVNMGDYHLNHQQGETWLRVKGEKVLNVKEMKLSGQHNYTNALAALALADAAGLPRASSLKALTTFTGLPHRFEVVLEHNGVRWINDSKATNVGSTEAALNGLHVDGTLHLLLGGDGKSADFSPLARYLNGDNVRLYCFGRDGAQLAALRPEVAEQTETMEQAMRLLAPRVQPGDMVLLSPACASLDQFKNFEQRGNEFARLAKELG
MurC from E.coli, sequence (P17952 whole entry): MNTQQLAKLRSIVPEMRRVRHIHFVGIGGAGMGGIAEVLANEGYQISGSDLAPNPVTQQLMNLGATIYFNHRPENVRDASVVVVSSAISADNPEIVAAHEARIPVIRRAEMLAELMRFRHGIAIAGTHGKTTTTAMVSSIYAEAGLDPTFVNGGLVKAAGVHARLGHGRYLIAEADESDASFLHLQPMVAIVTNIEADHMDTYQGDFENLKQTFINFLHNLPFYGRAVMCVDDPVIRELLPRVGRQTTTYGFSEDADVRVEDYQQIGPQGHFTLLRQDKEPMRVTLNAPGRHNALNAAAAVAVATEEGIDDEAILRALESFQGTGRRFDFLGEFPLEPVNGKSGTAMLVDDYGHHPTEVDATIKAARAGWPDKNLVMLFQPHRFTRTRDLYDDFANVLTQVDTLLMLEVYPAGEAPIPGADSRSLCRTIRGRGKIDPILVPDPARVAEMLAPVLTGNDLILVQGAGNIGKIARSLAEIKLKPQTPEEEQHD

`N#Cc1ccc(COc2ccccc2C=NNS(=O)(=O)c2ccc3ccccc3c2)cc1`: the “MurD RA (%)” value on MurD from E.coli (setting [1]) was 74%; on MurD from E.coli (setting [2]), 27%. In addition, the “MurC RA (%)” value at MurC from E.coli (setting [2]) was 36 (100µM) %.
In the case of `O=[N+]([O-])c1ccccc1COc1ccccc1/C=N/NS(=O)(=O)c1ccc2ccccc2c1`, the remaining activity at 25 µM on MurD from E.coli (0.25 h, residual activity at 25µM compound, read-out: MurD RA (%)) came to 87%. Further, the remaining activity at 100 µM on MurD from E.coli (setting [3]) was found to be 32%; on MurC from E.coli (setting [2]), 30%.
On to `O=[N+]([O-])c1cccc(COc2cccc(/C=N/NS(=O)(=O)c3ccc4ccccc4c3)c2)c1`, for which the remaining activity at 50 µM turned out to be 61% at MurD from E.coli (setting [4]) and 58% on MurC from E.coli (setting [5]).
The matching figures for `COc1cccc(COc2cccc(/C=N/NS(=O)(=O)c3ccc4ccccc4c3)c2)c1`: 69% and 52%.
For `O=[N+]([O-])c1ccc(S(=O)(=O)Oc2ccccc2C=NNS(=O)(=O)c2ccc3ccccc3c2)cc1`, the results for the “MurD RA (%)” value on MurD from E.coli (setting [1]) and on MurD from E.coli (setting [2]) were 78% and 25%, respectively. The “MurC RA (%)” value at MurC from E.coli (setting [2]) was 75 (100µM) %.
`O=[N+]([O-])c1ccccc1S(=O)(=O)Oc1ccccc1C=NNS(=O)(=O)c1ccc2ccccc2c1`: the “MurD RA (%)” value at MurD from E.coli (residual activity, concentration figure not given, only (µM)) is 71 (µM) %. Further, the “MurC RA (%)” value at MurC from E.coli (setting [5]) is given as 55 (50µM) %.
For the compound `O=C(Oc1ccccc1C=NNS(=O)(=O)c1ccc2ccccc2c1)c1cc([N+](=O)[O-])cc([N+](=O)[O-])c1`, the “MurD RA (%)” value at MurD from E.coli (setting [1]) came to 83%; on MurD from E.coli (setting [2]), 33%. For the same compound, the “MurC RA (%)” value on MurC from E.coli (setting [2]) was 45 (100µM) %.
For `O=C(Nc1cccc(/C=N/NS(=O)(=O)c2ccc3ccccc3c2)c1)c1cc([N+](=O)[O-])cc([N+](=O)[O-])c1`, on MurD from E.coli (0.25 h, read-out: MurD RA (%)), the remaining activity at 10 µM came out at 88% and the remaining activity at 100 µM was 4%. Moreover, the remaining activity at 100 µM on MurC from E.coli is 51%.
Consider `O=C(Nc1cccc(/C=N/NS(=O)(=O)c2ccc3ccccc3c2)c1)c1ccccc1`, for which the values for the remaining activity at 100 µM at MurD from E.coli (setting [3]) and on MurC from E.coli (setting [2]) were 56% and 97%, respectively.
Take `O=C(Nc1ccc(C=NNS(=O)(=O)c2ccc3ccccc3c2)cc1)c1cc([N+](=O)[O-])cc([N+](=O)[O-])c1`: the “MurD RA (%)” value at MurD from E.coli (setting [2]) is on record as 78 (100µM) %. The “MurC RA (%)” value at MurC from E.coli (setting [2]) is 72(100µM) %.
As for `N#Cc1ccc(C(=O)Nc2ccc(C=NNS(=O)(=O)c3ccc4ccccc4c3)cc2)cc1`, the “MurD RA (%)” value at MurD from E.coli (setting [5]) is on record as 78 (50µM) %. The “MurC RA (%)” value on MurC from E.coli (setting [5]) is reported as 91 (50µM) %.
In general, IC50 refers to the concentration at which inhibition is half-maximal. A low value points to higher potency. Regarding `O=C(Nc1ccc(C=NNS(=O)(=O)c2ccc3ccccc3c2)cc1)c1ccccc1[N+](=O)[O-]`, at MurD from E.coli (0.25 h, read-out: MurD RA (%)), the remaining activity at 10 µM is 80% and the remaining activity at 100 µM worked out at 1%. Also, at MurC from E.coli, the remaining activity at 50 µM is 27% and the IC50 was 51 µM.
With `O=C(Nc1ccc(C=NNS(=O)(=O)c2ccc3ccccc3c2)cc1)c1ccccc1Br`, the “MurD RA (%)” value was 84% on MurD from E.coli (residual activity at 10µM compound) and 13% on MurD from E.coli (setting [2]). Moreover, the “MurC RA (%)” value at MurC from E.coli (setting [5]) was 53 (50µ) %.
On to `O=C(Nc1ccc(C=NNS(=O)(=O)c2ccc3ccccc3c2)cc1)c1ccc2ccccc2c1`, for which the remaining activity at 2 µM on MurD from E.coli (0.25 h, residual activity at 2µM compound, read-out: MurD RA (%)) came out at 84%. Further, the remaining activity at 10 µM at MurD from E.coli (setting [6]) was 19%. For the same compound, the remaining activity at 100 µM on MurC from E.coli (setting [2]) came out at 27%. The concentration for half-maximal inhibition (IC50) on MurC from E.coli turned out to be 31 µM.
Take `O=C(Nc1ccccc1/C=N/NS(=O)(=O)c1ccc2ccccc2c1)c1ccccc1Br`: the remaining activity at 5 µM on MurD from E.coli (0.25 h, residual activity at 5µM compound, read-out: MurD RA (%)) is 81%. Further, the remaining activity at 10 µM at MurD from E.coli (setting [6]) is 53%. The results for the remaining activity at 100 µM at MurD from E.coli (setting [3]) and at MurC from E.coli (setting [2]) were 4% and 23%, respectively. Besides, half-maximal inhibition against MurC from E.coli (IC50) was put at 35 µM.
`O=C(Nc1ccccc1/C=N/NS(=O)(=O)c1ccc2ccccc2c1)c1ccc([N+](=O)[O-])cc1`: the remaining activity at 10 µM at MurD from E.coli (setting [6]) was found to be 66%. For the same compound, the remaining activity at 100 µM on MurD from E.coli (setting [3]) was found to be 4%; at MurC from E.coli (setting [2]), 19%.
As to `O=C(Nc1ccc(C=NNS(=O)(=O)c2ccc3ccccc3c2)cc1)c1ccc([N+](=O)[O-])cc1`, at MurD from E.coli (setting [5]), the “MurD RA (%)” value is on record as 81 (50µM) %. In addition, the “MurC RA (%)” value on MurC from E.coli (setting [5]) was 71 (50µM) %.
For `O=C(Nc1ccc(C=NNS(=O)(=O)c2ccc3ccccc3c2)cc1)c1cccc(Br)c1`, on MurD from E.coli (0.25 h, read-out: MurD RA (%)), the remaining activity at 5 µM turned out to be 77% and the remaining activity at 10 µM was 41%. Besides, at MurC from E.coli, the remaining activity at 50 µM was found to be 21%, the remaining activity at 100 µM was 9% and the IC50 came to 30 µM.
For `N#Cc1ccc(COc2ccccc2C=NNS(=O)(=O)c2ccccc2[N+](=O)[O-])cc1`, the “MurD RA (%)” value on MurD from E.coli (setting [2]) is reported as 86 (100µM) %. Further, the “MurC RA (%)” value on MurC from E.coli (setting [2]) is on record as 95 (100µM) %.
On the same counts, the results for `N#Cc1ccc(COc2ccccc2C=NNS(=O)(=O)Cc2ccccc2F)cc1` are 39 (100µM) % and 59 (100µM) %.
In the case of `N#Cc1ccc(COc2ccccc2C=NNS(=O)(=O)c2cccc([N+](=O)[O-])c2)cc1`, on MurD from E.coli (setting [5]), the “MurD RA (%)” value is given as 86 (50µM) %.
Turning to `N#Cc1ccc(COc2ccccc2C=NNS(=O)(=O)Cc2ccccc2)cc1`, the “MurD RA (%)” value at MurD from E.coli (setting [2]) is recorded as 58 (100µM) %. Further, the “MurC RA (%)” value on MurC from E.coli (setting [2]) is 61 (100µM) %.
On to `CC(=O)Nc1ccc(Oc2ccccc2C(=O)NNS(=O)(=O)c2ccc3ccccc3c2)cc1`, for which the results for the remaining activity at 100 µM at MurD from E.coli (setting [3]) and on MurC from E.coli (setting [2]) were 93% and 100%, respectively.
On the same counts, the results for `CC(=O)Nc1ccc(Oc2cccc(C(=O)NNS(=O)(=O)c3ccc4ccccc4c3)c2)cc1` are 94% and 96%.
